38 compounds from patent US20050009894A1 (Aventis Pharma S.A., priority 2001, published 2005) can be followed below.

The target in the first assay is T1, human KDR enzyme (Homo sapiens, UniProt P35968).
T1 construct: The cytoplasmic domain of human KDR enzyme is cloned in the form of a GST fusion; GST; made in house; host or cells: SF21 insect cells (baculovirus, pFastBac)
T1 sequence (P35968 786-1356 limits assumed): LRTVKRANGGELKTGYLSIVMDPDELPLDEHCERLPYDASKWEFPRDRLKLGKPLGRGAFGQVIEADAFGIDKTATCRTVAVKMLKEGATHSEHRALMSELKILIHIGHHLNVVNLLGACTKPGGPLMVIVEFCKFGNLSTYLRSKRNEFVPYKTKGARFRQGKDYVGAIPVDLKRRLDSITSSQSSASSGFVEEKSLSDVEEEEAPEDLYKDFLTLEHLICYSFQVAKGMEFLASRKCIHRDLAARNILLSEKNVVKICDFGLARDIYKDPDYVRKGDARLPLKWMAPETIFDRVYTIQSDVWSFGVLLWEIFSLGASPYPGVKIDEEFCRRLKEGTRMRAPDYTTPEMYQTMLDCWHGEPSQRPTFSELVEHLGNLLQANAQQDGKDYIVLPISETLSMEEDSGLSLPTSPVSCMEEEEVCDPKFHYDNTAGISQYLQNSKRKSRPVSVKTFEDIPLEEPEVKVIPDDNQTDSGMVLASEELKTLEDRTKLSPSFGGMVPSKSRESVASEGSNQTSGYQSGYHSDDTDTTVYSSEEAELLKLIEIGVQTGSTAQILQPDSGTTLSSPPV
Description: Phosphorylation of the substrate PLCγ by the enzyme KDR in vitro (flashplate technique). The following applies: Activity, Table VII, degrees of activity by IC50 range. The assay is classed as biochemical. Summed up: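 GST-fused human KDR cytoplasmic domain (Sf21 baculovirus, ~60% pure; 100 ng/well) phosphorylating 2 μg GST-PLCγ SH2-SH3 fragment in MOPS pH 7.2 with MgCl2/MnCl2, 1 h at 37° C. Started with γ33P-ATP plus cold ATP (2 μM in start solution); flashplate radioactivity. % inhibition vs no-compound control; IC50 from dose-response curves.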
Consider `O=C(Cc1ccccc1)Oc1cc(-c2nc3ccccc3[nH]2)[nH]n1` [Example 219, Phenyl-acetic acid 5-(1H-benzoimidazol-2-yl)-1H-pyrazol-3-yl ester], for which the IC50 was > 3 µM.

The assay is the same for the next values; noted with them: Table VII, degrees of activity by IC50 range; read-out: Activity.
`COc1cccc(COc2cc(-c3nc4ccccc4[nH]3)[nH]n2)c1` [Example 197, 2-[5-(3-Methoxy-benzyloxy)-2H-pyrazol-3-yl]-1H-benzoimidazole]: the IC50 lay within 0.3 to 3 µM.

With `CN(C)c1ccc(CNC(=O)c2ccc3[nH]c(-c4n[nH]c5ccccc45)nc3c2)cc1` [Example 35, 2-(1H-Indazol-3-yl)-1H-benzoimidazole-5-carboxylic acid 4-dimethylamino-benzylamide], the IC50 lay within 0.3 to 3 µM.

In the case of `Cc1ccc(-c2ccc3nc(-c4[nH]nc5ccccc45)[nH]c3c2)cc1C` [Example 116, 3-[6-(3,4-Dimethyl-phenyl)-1H-benzoimidazol-2-yl]-2H-indazole], the IC50 is > 3 µM.

For `O=C(NCc1ccc(Cl)cc1Cl)c1ccc2[nH]c(-c3n[nH]c4ccccc34)nc2c1` [Example 167, 2-(1H-Indazol-3-yl)-1H-benzoimidazole-5-carboxylic acid 2,4-dichloro-benzylamide], the IC50 was < 0.3 µM.

For `c1ccc2[nH]c(-c3cc(OCCN4CCCCC4)n[nH]3)nc2c1` [Example 196, 2-[5-(2-Piperidin-1-yl-ethoxy)-2H-pyrazol-3-yl]-1H-benzoimidazole], the IC50 is > 3 µM.

Regarding `O=C(NCc1ccccc1[N+](=O)[O-])c1ccc2[nH]c(-c3n[nH]c4ccccc34)nc2c1` [Example 67, 2-(1H-Indazol-3-yl)-1H-benzoimidazole-5-carboxylic acid 2-nitro-benzylamide], the IC50 fell in the range of 0.3 to 3 µM.

With `O=C(NCc1cccc(Cl)c1)c1ccc2[nH]c(-c3n[nH]c4ccccc34)nc2c1` [Example 72, 2-(1H-Indazol-3-yl)-1H-benzoimidazole-5-carboxylic acid 3-chloro-benzylamide], the IC50 was < 0.3 µM.

On to `CC(C)c1ccc(-c2ccc3nc(-c4[nH]nc5ccccc45)[nH]c3c2)cc1` [Example 144, 3-[6-(4-Isopropyl-phenyl)-1H-benzoimidazol-2-yl]-2H-indazole], for which the IC50 lay in the range of 0.3 to 3 µM.

`O=C(NCc1ccccc1F)c1ccc2[nH]c(-c3n[nH]c4ccccc34)nc2c1` [Example 165, 2-(1H-Indazol-3-yl)-1H-benzoimidazole-5-carboxylic acid 2-fluoro-benzylamide]: the IC50 was > 3 µM.

For the compound `c1ccc(COc2ccc(-c3ccc4nc(-c5[nH]nc6ccccc56)[nH]c4c3)cc2)cc1` [Example 130, 3-[6-(4-Benzyloxy-phenyl)-1H-benzoimidazol-2-yl]-2H-indazole], the IC50 is > 3 µM.

As for `O=C(NCc1ccc(Oc2ccccc2)cc1)c1cccc2nc(-c3n[nH]c4ccccc34)[nH]c12` [Example 84, 2-(1H-Indazol-3-yl)-3H-benzoimidazole-4-carboxylic acid 4-phenoxy-benzylamide], the IC50 was > 3 µM.

For the compound `O=C(NCc1cc(F)c(F)c(F)c1)c1ccc2[nH]c(-c3n[nH]c4ccccc34)nc2c1` [Example 161, 2-(1H-Indazol-3-yl)-1H-benzoimidazole-5-carboxylic acid 3,4,5-trifluoro-benzylamide], the IC50 was in the range of 0.3 to 3 µM.

Consider `Cc1ccc(-c2ccc3nc(-c4[nH]nc5ccccc45)[nH]c3c2)cc1` [Example 107, 3-(6-p-Tolyl-1H-benzoimidazol-2-yl)-2H-indazole], for which the IC50 was > 3 µM.

As for `FC(F)(F)Oc1ccc(-c2ccc3nc(-c4[nH]nc5ccccc45)[nH]c3c2)cc1` [Example 124, 3-[6-(4-Trifluoromethoxy-phenyl)-1H-benzoimidazol-2-yl]-2H-indazole], the IC50 was > 3 µM.

Regarding `O=C(NCc1ccccc1[N+](=O)[O-])c1cccc2nc(-c3n[nH]c4ccccc34)[nH]c12` [Example 91, 2-(1H-Indazol-3-yl)-3H-benzoimidazole-4-carboxylic acid 2-nitro-benzylamide], the IC50 lay within 0.3 to 3 µM.

In the case of `NS(=O)(=O)c1cc(C(=O)COc2cc(-c3nc4ccccc4[nH]3)[nH]n2)ccc1Cl` [Example 211, 5-{2-[5-(1H-Benzoimida-zol-2-yl)-1H-pyrazol-3-yloxy]-acetyl}-2-chloro-benzenesulfonamide], the IC50 was > 3 µM.

For the compound `O=C(NCc1ccc(Cl)cc1)c1ccc2[nH]c(-c3n[nH]c4ccccc34)nc2c1` [Example 168, 2-(1H-Indazol-3-yl)-1H-benzoimidazole-5-carboxylic acid 4-chloro-benzylamide], the IC50 was < 0.3 µM.

Regarding `O=C(NCc1csc2ccccc12)c1cccc2nc(-c3n[nH]c4ccccc34)[nH]c12` [Example 83, 2-(1H-Indazol-3-yl)-3H-benzoimidazole-4-carboxylic acid (benzo[b]thiophen-3-ylmethyl)-amide], the IC50 is > 3 µM.

Consider `O=C(NCc1cccc([N+](=O)[O-])c1)c1ccc2[nH]c(-c3n[nH]c4ccccc34)nc2c1` [Example 153, 2-(1H-Indazol-3-yl)-1H-benzoimidazole-5-carboxylic acid 3-nitro-benzylamide], for which the IC50 was in the range of 0.3 to 3 µM.

On to `O=C(NCc1cccnc1)c1cccc2nc(-c3n[nH]c4ccccc34)[nH]c12` [Example 80, 2-(1H-Indazol-3-yl)-3H-benzoimidazole-4-carboxylic acid (pyridin-3-ylmethyl)-amide], for which the IC50 fell in the range of 0.3 to 3 µM.

Consider `CC(C)(C)c1ccc(COc2cc(-c3nc4ccccc4[nH]3)[nH]n2)cc1` [Example 190, 2-[5-(4-tert-Butyl-benzyloxy)-2H-pyrazol-3-yl]-1H-benzoimidazole], for which the IC50 was > 3 µM.

On to `COc1ccc(CNC(=O)c2ccc3[nH]c(-c4n[nH]c5ccccc45)nc3c2)cn1` [Example 180, 2-(1H-Indazol-3-yl)-1H-benzoimidazole-5-carboxylic acid (6-methoxy-pyridin-3-ylmethyl)-amide], for which the IC50 was < 0.3 µM.

Take `O=S(=O)(Cc1ccccc1COc1cc(-c2nc3ccccc3[nH]2)[nH]n1)c1ccccc1` [Example 191, 2-[5-(2-Benzenesulfonylmethylbenzyloxy)-2H-pyrazol-3-yl]-1H-benzoimidazole]: the IC50 is 0.3 to 3 µM.

Regarding `O=C(NCCc1ccccc1)c1cccc2nc(-c3n[nH]c4ccccc34)[nH]c12` [Example 96, 2-(1H-Indazol-3-yl)-3H-benzoimidazole-4-carboxylic acid phenethyl-amide], the IC50 is > 3 µM.

Turning to `FC(F)(F)Oc1cccc(-c2ccc3nc(-c4[nH]nc5ccccc45)[nH]c3c2)c1` [Example 136, 3-[6-(3-Trifluoromethoxy-phenyl)-1H-benzoimidazol-2-yl]-2H-indazole], the IC50 was > 3 µM.

In the case of `Cc1cc(C)cc(-c2ccc3nc(-c4[nH]nc5ccccc45)[nH]c3c2)c1` [Example 115, 3-[6-(3,5-Dimethyl-phenyl)-1H-benzoimidazol-2-yl]-2H-indazole], the IC50 was 0.3 to 3 µM.

As for `CC(=O)c1ccc(-c2ccc3nc(-c4[nH]nc5ccccc45)[nH]c3c2)cc1` [Example 125, 1-{4-[2-(2H-Indazol-3-yl)-3H-benzoimidazol-5-yl]-phenyl}-ethanone], the IC50 was > 3 µM.

For `Cn1c(CNC(=O)c2ccc3[nH]c(-c4n[nH]c5ccccc45)nc3c2)nc2ccccc21` [Example 70, 2-(1H-Indazol-3-yl)-1H-benzoimidazole-5-carboxylic acid (1-methyl-1H-benzoimidazol-2-ylmethyl)-amide], the IC50 lay within 0.3 to 3 µM.

On to `O=C(NCc1ccc(Oc2ccccc2)cc1)c1ccc2[nH]c(-c3n[nH]c4ccccc34)nc2c1` [Example 48, 2-(1H-Indazol-3-yl)-1H-benzoimidazole-5-carboxylic acid 4-phenoxy-benzylamide], for which the IC50 is 0.3 to 3 µM.

As for `CC(C)(C)c1ccc(-c2ccc3nc(-c4[nH]nc5ccccc45)[nH]c3c2)cc1` [Example 118, 3-[6-(4-tert-Butyl-phenyl)-1H-benzoimidazol-2-yl]-2H-indazole], the IC50 is > 3 µM.

On to `Cc1cc(C)cc(CNC(=O)c2ccc3[nH]c(-c4n[nH]c5ccccc45)nc3c2)c1` [Example 69, 2-(1H-Indazol-3-yl)-1H-benzoimidazole-5-carboxylic acid 3,5-dimethyl-benzylamide], for which the IC50 lay in the range of 0.3 to 3 µM.

For the compound `FC(F)(F)c1cccc(-c2ccc3nc(-c4[nH]nc5ccccc45)[nH]c3c2)c1` [Example 111, 3-[6-(3-Trifluoromethyl-phenyl)-1H-benzoimidazol-2-yl]-2H-indazole], the IC50 is > 3 µM.

The assay is the same for the next values; noted with them: product tested at 10 μM; read-out: % of inhibition of the phosphorylation of PLCγ by KDR (product tested at a concentration of 10 μM).
As for `CCNC(=O)c1ccc2[nH]c(-c3n[nH]c4ccccc34)nc2c1` [Example 3, 2-(1H-Indazol-3-yl)-1H-benzimidazole-5-carboxylic acid N-ethylamide], the inhibition at 10 µM is 91.8%.

Staying with this assay, now noted: read-out: IC50 (μM) on inhibition of the phosphory-lation of PLCγ by KDR.
Consider `O=C(NCc1ccco1)c1ccc2[nH]c(-c3n[nH]c4ccccc34)nc2c1` [Example 12, 2-(1H-Indazol-3-yl)-1H-benzimidazole-5-carboxylic acid N-(2-furfuryl)amide], for which the IC50 is 0.16 µM.

Turning to `CC(C)CNC(=O)c1ccc2[nH]c(-c3n[nH]c4ccccc34)nc2c1` [Example 10, 2-(1H-Indazol-3-yl)-1H-benzimidazole-5-carboxylic acid N-(isobutyl)amide], the IC50 was found to be 0.34 µM.

Turning to `CCc1cc(-c2nc3cc(C)c(C)cc3[nH]2)[nH]n1` [Example 23, 2-(5-Ethyl-2H-pyrazol-3-yl)-5,6-dimethyl-1H-benzimidazole], the IC50 came to 2 µM.

For the compound `COC(=O)c1ccc2nc(-c3n[nH]c4ccccc34)[nH]c2c1` [Example 14, Methyl 2-(1H-indazol-3-yl)-3H-benzimidazole-5-carboxylate], the IC50 came to 1.2 µM.
